According to patent publication US12258342B2, “Class of DNA gyrase and/or topoisomerase IV inhibitors with activity against gram-positive and gram-negative bacteria” (Univerza v Ljubljani, priority 2018, dated 2025):
Converted amounts (≈) assume the structure as drawn.

Assays:
E. coli DNA gyrase = E. coli DNA gyrase (Escherichia coli (strain K12), UniProt P0AES6); test: DNA gyrase inhibition assay (Inspiralis, streptavidin-coated plates); type: biochemical
Description: (§1) Inhibitory activities for compounds of the present invention were determined on E. coli and S. aureus DNA gyrase and topoisomerase IV in an assay from Inspiralis on streptavidin-coated 96-well microtiter plates from Thermo scientific Pierce. […] After washing off the unbound oligonucleotide, the enzyme test was performed. […] Reaction solutions were incubated at 37° C. for 30 min. After that, the TF buffer (50 mM NaOAc with pH 5.0, 50 mM NaCl and 50 mM MgCl2) was added to terminate the enzymatic reaction. After additional incubation for 30 min at rt, during which biotin-oligonucleotide-plasmid triplex was formed, the unbound plasmid was washed off using TF buffer and SybrGOLD in T10 buffer (10 mM Tris HCl with pH 8.0 and 1 mM EDTA) was added. […] GraphPad Prism 6.0 software was used to calculate the IC50 values. The result is given as the average value of three independent measurements. […] Chemoth.

E. coli topoisomerase IV = E. coli topoisomerase IV (Escherichia coli (strain K12), UniProt P20083); test: Topoisomerase IV inhibition assay (Inspiralis, streptavidin-coated plates); type: biochemical
Sequence of E. coli topoisomerase IV (P20083 whole entry, looked up): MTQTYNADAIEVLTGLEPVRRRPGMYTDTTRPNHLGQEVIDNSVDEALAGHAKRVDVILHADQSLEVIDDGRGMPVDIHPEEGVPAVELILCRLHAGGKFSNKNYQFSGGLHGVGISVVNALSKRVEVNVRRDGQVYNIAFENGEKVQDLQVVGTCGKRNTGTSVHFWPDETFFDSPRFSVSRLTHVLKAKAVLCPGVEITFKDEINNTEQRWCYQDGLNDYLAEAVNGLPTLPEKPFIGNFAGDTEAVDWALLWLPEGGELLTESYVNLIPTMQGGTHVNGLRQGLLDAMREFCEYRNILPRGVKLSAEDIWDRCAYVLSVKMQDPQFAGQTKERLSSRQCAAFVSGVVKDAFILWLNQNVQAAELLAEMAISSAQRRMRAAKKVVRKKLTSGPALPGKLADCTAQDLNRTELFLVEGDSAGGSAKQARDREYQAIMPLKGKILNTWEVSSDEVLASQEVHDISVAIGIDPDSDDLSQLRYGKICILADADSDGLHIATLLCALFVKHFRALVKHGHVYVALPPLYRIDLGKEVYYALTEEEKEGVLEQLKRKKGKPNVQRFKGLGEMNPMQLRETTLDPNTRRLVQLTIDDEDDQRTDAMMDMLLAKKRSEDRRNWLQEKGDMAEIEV
Sequence of E. coli topoisomerase IV (P0AFI2 whole entry partner, looked up): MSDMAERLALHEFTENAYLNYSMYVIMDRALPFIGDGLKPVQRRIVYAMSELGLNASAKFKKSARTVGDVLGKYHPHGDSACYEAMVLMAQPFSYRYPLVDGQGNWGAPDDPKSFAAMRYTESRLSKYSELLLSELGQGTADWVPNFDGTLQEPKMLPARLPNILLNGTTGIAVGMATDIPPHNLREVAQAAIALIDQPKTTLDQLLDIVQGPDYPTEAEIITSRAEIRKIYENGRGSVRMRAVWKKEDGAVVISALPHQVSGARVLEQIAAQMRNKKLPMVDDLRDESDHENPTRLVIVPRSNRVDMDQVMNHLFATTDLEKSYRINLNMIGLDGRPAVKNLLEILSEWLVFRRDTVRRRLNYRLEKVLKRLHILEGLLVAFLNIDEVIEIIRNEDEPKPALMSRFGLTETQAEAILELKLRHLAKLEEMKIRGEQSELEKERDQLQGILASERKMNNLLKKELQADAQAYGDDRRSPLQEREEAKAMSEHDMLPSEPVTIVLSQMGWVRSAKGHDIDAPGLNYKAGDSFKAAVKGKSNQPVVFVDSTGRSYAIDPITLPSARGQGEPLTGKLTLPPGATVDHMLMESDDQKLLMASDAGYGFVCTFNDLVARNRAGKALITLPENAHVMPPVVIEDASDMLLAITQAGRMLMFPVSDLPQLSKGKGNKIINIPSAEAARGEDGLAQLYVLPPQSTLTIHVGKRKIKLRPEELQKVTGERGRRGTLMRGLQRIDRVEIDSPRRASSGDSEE
Description: Inhibitory activities for compounds of the present invention were determined on E. coli and S. aureus DNA gyrase and topoisomerase IV in an assay from Inspiralis on streptavidin-coated 96-well microtiter plates from Thermo scientific Pierce. […] After washing off the unbound oligonucleotide, the enzyme test was performed. […] Reaction solutions were incubated at 37° C. for 30 min. After that, the TF buffer (50 mM NaOAc with pH 5.0, 50 mM NaCl and 50 mM MgCl2) was added to terminate the enzymatic reaction. After additional incubation for 30 min at rt, during which biotin-oligonucleotide-plasmid triplex was formed, the unbound plasmid was washed off using TF buffer and SybrGOLD in T10 buffer (10 mM Tris HCl with pH 8.0 and 1 mM EDTA) was added. […] Initial screening was done at 100 or 10 nM concentration of inhibitors against E. coli DNA gyrase or 1 μM or 100 nM concentration against S. aureus DNA gyrase and E. coli and S. aureus topo IV. […] GraphPad Prism 6.0 software was used to calculate the IC50 values. The result is given as the average value of three independent measurements. […] Chemoth.

E. coli ATCC 25922 = test: Microbroth dilution MIC (CLSI); conditions: Escherichia coli, ATCC25922, read-out: MIC (μg/mL) E. coli ATCC 25922
S. aureus ATCC 29213 = test: Microbroth dilution MIC (CLSI); conditions: Staphylococcus aureus, ATCC29213, read-out: MIC (μg/mL) S. aureus ATCC 29213
[1] = molecular target: S. aureus topoisomerase IV (Staphylococcus aureus, UniProt P0C1S7); test: Topoisomerase IV inhibition assay (Inspiralis, streptavidin-coated plates); type: biochemical; conditions: read-out: IC50 DNA topoisomerase IV from S. aureus
Description: Inhibitory activities for compounds of the present invention were determined on E. coli and S. aureus DNA gyrase and topoisomerase IV in an assay from Inspiralis on streptavidin-coated 96-well microtiter plates from Thermo scientific Pierce. First, the plates were rehydrated with buffer (20 mM Tris-HCl with pH 7.6, 0.01% w/v BSA, 0.05% v/v Tween 20, 137 mM NaCl) and the biotinylated oligonucleotide was then immobilized. After washing off the unbound oligonucleotide, the enzyme test was performed. […] Reaction solutions were incubated at 37° C. for 30 min. After that, the TF buffer (50 mM NaOAc with pH 5.0, 50 mM NaCl and 50 mM MgCl2) was added to terminate the enzymatic reaction. After additional incubation for 30 min at rt, during which biotin-oligonucleotide-plasmid triplex was formed, the unbound plasmid was washed off using TF buffer and SybrGOLD in T10 buffer (10 mM Tris HCl with pH 8.0 and 1 mM EDTA) was added. The fluorescence was measured with a microplate reader (BioTek Synergy H4, excitation: 485 nm, emission: 535 nm). […]. GraphPad Prism 6.0 software was used to calculate the IC50 values. The result is given as the average value of three independent measurements. […]. Chemoth. 66, 2061-2096 (2011))) for E. coli and S. aureus topoisomerase IV) was used.

E. faecium ATCC 35667 = test: Microbroth dilution MIC (CLSI); conditions: Enterococcus faecium, ATCC35667, read-out: MIC (μg/mL) E. faecium ATCC 35667
E. faecalis ATCC 29212 = test: Microbroth dilution MIC (CLSI); conditions: Enterococcus faecalis, ATCC29212, read-out: MIC (μg/mL) E. faecalis ATCC 29212
S. aureus DNA gyrase = S. aureus DNA gyrase (Staphylococcus aureus, UniProt P0A0K8); test: biochemical; conditions: read-out: IC50 DNA gyrase from S. aureus
Description: as §1

| Structure (SMILES) | IC50 (E. coli DNA gyrase) [nM] | IC50 (E. coli topoisomerase IV) [nM] | MIC (E. coli ATCC 25922) [µg/mL] | MIC (S. aureus ATCC 29213) [µg/mL] | IC50 [1] [nM] | MIC (E. faecium ATCC 35667) [µg/mL] | MIC (E. faecalis ATCC 29212) [µg/mL] | IC50 (S. aureus DNA gyrase) [nM] |
| --- | --- | --- | --- | --- | --- | --- | --- | --- |
| Cc1[nH]c(C(=O)Nc2nc3c(OCCN4CCOCC4)cc(C(=O)O)cc3s2)c(Cl)c1Cl.Cl [Example 10, 4-(2-((6-carboxy-2-(3,4-dichloro-5-methyl-1H-pyrrole-2-carboxamido)benzo[d]thiazol-4-yl)oxy)ethyl)morpholin-4-ium chloride] | < 5 | < 400 | > 64 | > 64 | < 400 | 40.2 | 8 | < 20 |
| Cc1[nH]c(C(=O)Nc2nc3cc(O)c(C(=O)O)cc3s2)c(Cl)c1Cl [Example 13, 2-(3,4-dichloro-5-methyl-1H-pyrrole-2-carboxamido)-5-hydroxybenzo[d]thiazole-6-carboxylic acid] | < 5 | – | > 64 | 16 (≈ 41.4 µM) | – | 1.21 (≈ 3.13 µM) | 1 (≈ 2.59 µM) | – |
| Cc1[nH]c(C(=O)Nc2nc3ccc(C(=O)O)c(Cl)c3s2)c(Cl)c1Cl [Example 14, 7-chloro-2-(3,4-dichloro-5-methyl-1H-pyrrole-2-carboxamido)benzo[d]thiazole-6-carboxylic acid] | 310 ± 30 | – | > 64 | > 64 | – | > 64 | > 64 | – |
| O=C(O)c1ccc2nc(N(Cc3ccccc3)C(=O)c3cc(Br)c(Br)[nH]3)sc2c1 [Example 15, 2-(N-benzyl-4,5-dibromo-1H-pyrrole-2-carboxamido)benzo[d]thiazole-6-carboxylic acid] | 5.1 ± 1.3 | – | > 64 | 0.42 (≈ 0.785 µM) | – | 0.83 (≈ 1.55 µM) | 0.21 (≈ 0.392 µM) | – |
| Cc1[nH]c(C(=O)N(Cc2ccccc2)c2nc3ccc(C(=O)O)cc3s2)c(Cl)c1Cl [Example 16, 2-(N-benzyl-3,4-dichloro-5-methyl-1H-pyrrole-2-carboxamido)benzo[d]thiazole-6-carboxylic acid] | < 5 | – | 64 (≈ 139 µM) | ≤ 0.0312 | – | 0.36 (≈ 0.782 µM) | ≤ 0.0312 | – |
| Cc1[nH]c(C(=O)Nc2nc3ccc(-c4nnn[nH]4)cc3s2)c(Cl)c1Cl [Example 17, N-(6-(1H-tetrazol-5-yl)benzo[d]thiazol-2-yl)-3,4-dichloro-5-methyl-1H-pyrrole-2-carboxamide] | < 5 | – | > 64 | 16 (≈ 40.6 µM) | – | 1.23 (≈ 3.12 µM) | 1 (≈ 2.54 µM) | – |
| Cc1[nH]c(C(=O)Nc2nc3ccc(C(N)=O)cc3s2)c(Cl)c1Cl [Example 18, 2-(3,4-dichloro-5-methyl-1H-pyrrole-2-carboxamido)benzo[d]thiazole-6-carboxamide] | 11 ± 2 | – | > 64 | 1.16 (≈ 3.14 µM) | – | > 64 | > 64 | – |
| O=C(NO)c1ccc2nc(NC(=O)c3cc(Br)c(Br)[nH]3)sc2c1 [Example 19, 2-(4,5-dibromo-1H-pyrrole-2-carboxamido)-N-hydroxybenzo[d]thiazole-6-carboxamide] | 89 ± 20 | – | > 64 | > 64 | – | > 64 | 64 (≈ 139 µM) | – |
| Cc1[nH]c(C(=O)Nc2nc3ccc(C(=O)NO)cc3s2)c(Cl)c1Cl [Example 20, 2-(3,4-dichloro-5-methyl-1H-pyrrole-2-carboxamido)-N-hydroxybenzo[d]thiazole-6-carboxamide] | 280 ± 10 | – | > 64 | 64 (≈ 166 µM) | – | 38.5 (≈ 100 µM) | 0.5 (≈ 1.3 µM) | – |
| O=C(O)CCNC(=O)c1ccc2nc(NC(=O)c3cc(Br)c(Br)[nH]3)sc2c1 [Example 21, 3-(2-(4,5-dibromo-1H-pyrrole-2-carboxamido)benzo[d]thiazole-6-carboxamido)propanoic acid] | 12 ± 5 | – | > 64 | > 64 | – | > 64 | > 64 | – |
| Cc1[nH]c(C(=O)Nc2nc3ccc(C(=O)NCCC(=O)O)cc3s2)c(Cl)c1Cl [Example 22, 3-(2-(3,4-dichloro-5-methyl-1H-pyrrole-2-carboxamido)benzo[d]thiazole-6-carboxamido)propanoic acid] | 7 ± 0.9 | – | > 64 | 32 (≈ 72.5 µM) | – | 5.52 (≈ 12.5 µM) | 2 (≈ 4.53 µM) | – |
| Cc1[nH]c(C(=O)Nc2nc3ccc(C(=O)NCC(=O)O)cc3s2)c(Cl)c1Cl [Example 23, (2-(3,4-dichloro-5-methyl-1H-pyrrole-2-carboxamido)benzo[d]thiazole-6-carbonyl)glycine] | 7.1 ± 3.2 | < 400 | > 64 | 64 (≈ 150 µM) | < 400 | – | 16 (≈ 37.4 µM) | < 20 |
| Cc1[nH]c(C(=O)Nc2nc3c(OCc4cccc(C(=O)O)c4)cc(C(=O)O)cc3s2)c(Cl)c1Cl [Example 24, 4-((3-carboxybenzyl)oxy)-2-(3,4-dichloro-5-methyl-1H-pyrrole-2-carboxamido)benzo[d]thiazole-6-carboxylic acid] | < 5 | < 400 | > 64 | > 64 | < 400 | – | 1.5 (≈ 2.88 µM) | < 20 |
| Cc1[nH]c(C(=O)Nc2nc3c(OCc4cccc(F)c4)cc(C(=O)O)cc3s2)c(Cl)c1Cl [Example 30, 2-(3,4-dichloro-5-methyl-1H-pyrrole-2-carboxamido)-4-((3-fluorobenzyl)oxy)benzo[d]thiazole-6-carboxylic acid] | – | – | > 64 | 0.0625 (≈ 0.126 µM) | < 400 | – | 0.001 (≈ 0.00202 µM) | < 20 |
| Cc1[nH]c(C(=O)Nc2nc3c(OCc4ccsc4)cc(C(=O)O)cc3s2)c(Cl)c1Cl [Example 31, 2-(3,4-dichloro-5-methyl-1H-pyrrole-2-carboxamido)-4-(thiophen-3-ylmethoxy)benzo[d]thiazole-6-carboxylic acid] | < 5 | < 400 | 4 (≈ 8.29 µM) | 0.25 (≈ 0.518 µM) | < 400 | – | 0.0156 (≈ 0.0323 µM) | < 20 |
| Cc1[nH]c(C(=O)Nc2nc3c(OCc4cccs4)cc(C(=O)O)cc3s2)c(Cl)c1Cl [Example 32, 2-(3,4-dichloro-5-methyl-1H-pyrrole-2-carboxamido)-4-(thiophen-2-ylmethoxy)benzo[d]thiazole-6-carboxylic acid] | < 5 | < 400 | 8 (≈ 16.6 µM) | 0.065 (≈ 0.135 µM) | < 400 | – | 0.0163 (≈ 0.0337 µM) | < 20 |
| Cc1[nH]c(C(=O)Nc2nc3c(N4CCCC4)cc(C(=O)O)cc3s2)c(Cl)c1Cl [Example 37, 2-(3,4-dichloro-5-methyl-1H-pyrrole-2-carboxamido)-4-(pyrrolidin-1-yl)benzo[d]thiazole-6-carboxylic acid] | < 5 | < 400 | 16 (≈ 36.4 µM) | 0.25 (≈ 0.569 µM) | < 400 | – | 0.125 (≈ 0.285 µM) | < 20 |
| Cc1[nH]c(C(=O)Nc2nc3c(-c4ccccc4)cc(C(=O)O)cc3s2)c(Cl)c1Cl [Example 44, 2-(3,4-dichloro-5-methyl-1H-pyrrole-2-carboxamido)-4-phenylbenzo[d]thiazole-6-carboxylic acid] | < 5 | < 400 | > 64 | 0.0312 (≈ 0.07 µM) | < 400 | – | 0.023 (≈ 0.0515 µM) | < 20 |
